Test results from a melting point compilation (Tetko et al.; mined from patent text by program, amines drawn as free bases though some values may be those of a salt).

Row | Compound | melting point [°C]
1 | CC(Cc1ccc(OCC(N)=O)cc1)NCC(O)c1ccccc1 (centres undefined) | 158 to 162
2 | Cc1cn(-c2ccc(NC(=O)c3ccc(Cl)c(C#Cc4cnc(NC5CC5)nc4)c3)cc2C(F)(F)F)cn1 | 141 to 143
3 | OCc1nnc2n1-c1ccc(Cl)cc1C(c1ccccc1Cl)=NC2 | 236 to 239
4 | CC12CCC(F)CC1=CCC1C2CCC2(C)C(O)CCC12 (centres undefined) | 165 to 166
5 | CCOC(=O)C=CN1C(C)(C)CC(OC(=O)CC(=O)OC2CC(C)(C)N(C=CC(=O)OCC)C(C)(C)C2)CC1(C)C | 100 to 102
6 | Cc1nn(S(=O)Oc2ccccc2)c2ccccc12 (centres undefined) | 141 to 143
7 | CC(C)(C)NCC(O)COc1ccc(C=O)cc1 (centres undefined) | 123 to 126
8 | CCCCn1c(=O)c2c(ncn2S(=O)(=O)c2ccc(OC)c(OC)c2)n(CCCC)c1=O | 134 to 135
9 | O=C(O)CCCCNC(=O)c1ccc(Cl)cc1O | 140 to 141
10 | Cc1ccnc(C(=O)c2[nH]c3cc(Cl)ccc3c2NC(=O)CCN(C)C)c1 | 170 to 171
11 | Cn1cc(-c2cc3nccnc3[nH]2)cn1 | 232 to 234
12 | CCOC(=O)c1cc(-n2c(=O)cc[nH]c2=O)ccc1Cl | 170 to 172
13 | CC(C)OP(=O)(CCCCC1(C(=O)NCC(F)(F)F)c2ccccc2-c2ccccc21)OC(C)C | 91 to 94
14 | CNCC1Cc2cc(-c3ccccc3)cc(-c3ccc(Cl)cc3)c2O1 (centres undefined) | > 250
15 | COc1cccc(OCC2CC2)c1-c1cc(C(=O)C2(C(=O)O)C3CC4CC(C3)CC2C4)nn1-c1ccnc2cc(Cl)ccc12 (centres undefined) | 200
16 | CN1CCCCCC1=NC(=O)Nc1cccc(Cl)c1 | 115 to 118
17 | CCOC(=O)C1=Cc2cc(C#C[Si](C)(C)C)ccc2NC1C(F)(F)F (centres undefined) | 117 to 119
18 | Cc1c(NCc2ccccc2)cc2c(c1C)OCC2c1ccc(C(C)C)cc1 (centres undefined) | 108 to 109
19 | Nc1nc(-c2cc(Cl)ccc2Cl)nc(N2CCSCC2)n1 | 239 to 241
20 | COC(=O)COc1cc2c(c3c1c(C(=O)C(N)=O)c(C)n3Cc1ccc(F)cc1)CCC2 | 134 to 136
21 | COc1ccc2c(c1)c(Cc1nc(-c3cccc(Br)c3)cs1)c(C)n2C(=O)c1ccc(Cl)cc1 | 208 to 212
22 | S=C(Nc1ccccc1)N(Cc1ccc(Br)cc1)C1CCCC1 | 129 to 131
23 | O=C1CCC(N2Cc3c(OCc4nc(CN5CCOCC5)cs4)cccc3C2=O)C(=O)N1 (centres undefined) | 218 to 220
24 | N#Cc1cc2c(cc1F)OCC21C(=O)Nc2ccccc21 (centres undefined) | 222 to 224
25 | CC(C)(C)c1ccc2c(c1O)C(=O)c1c(O)cccc1C2 | 126 to 127

Row | Compound | melting point [°C]
26 | NS(=O)(=O)c1ccccc1OC(Cl)=CCl | 147 to 149
27 | CN1Cc2cc(C(O)CN3CCC(COc4ccccc4)CC3)ccc2NC1=O (centres undefined) | 205
28 | CCc1ccc(C2CCCN2S(=O)(=O)c2ccc(C)cc2)cc1 (racemic) | 92
29 | CCc1nc2c(N)nc3ccccc3c2n1CC#Cc1cccc(C(F)(F)F)c1 | 202 to 204
30 | COC(=O)c1cc(C(=O)OC)cc(P(c2ccccc2)c2ccccc2)c1 | 103 to 104
31 | CNC(=S)n1nc(N)nc1N | 176 to 178
32 | O=c1[nH]c(-c2ccccn2)c(I)c(=O)n1-c1ccc(OC(F)(F)F)cc1 | 215 to 217
33 | COc1cc2c(cc1OC)CC(=O)NC=C2 | 234 to 237
34 | COc1ccc2cc(-c3nc(-c4ccccc4)no3)c(=O)oc2c1 | 215
35 | CNC(=S)NS(=O)(=O)c1cc(CCNC(=O)c2cc(C(C)(C)C)ccc2OC)ccc1OCCOC | 61
36 | CCCCC1Cc2c(c3cccnc3n(-c3ccc(F)cc3)c2=O)O1 (centres undefined) | 258 to 260
37 | COc1cccc(C(O)C2CCN(CCc3ccc(F)cc3)CC2)c1OC (centres undefined) | 114 to 116
38 | O=C(NCc1ccccc1)NCC(C(=O)O)C(F)(F)F (centres undefined) | 183 to 184
39 | COc1ccc(-c2cc3ncc(SC)c(O)c3s2)cc1 | 283 to 287
40 | CN(C)C(=O)N1CCC(Oc2c(F)c(F)c(F)c(F)c2F)(c2ccccc2)CC1 | 92 to 96
41 | COc1ccc(O)cn1 | 80 to 82
42 | CCCCc1nccc2c([N+](=O)[O-])cccc12 | 69 to 69.5
43 | N#Cc1ccc2[nH]cc(-c3nc(-c4cccnc4)cs3)c2c1 | 240
44 | CCCCSC(Cn1cncn1)c1ccc(Cl)cc1Cl (centres undefined) | 143
45 | O=C(c1ccccc1F)N1C(=O)c2ccccc2S1(=O)=O | 148 to 151
46 | Nc1c(OCCCl)cccc1[N+](=O)[O-] | 71 to 73
47 | CCC(Oc1ccc2ncccc2c1)C(=O)O (centres undefined) | 78 to 80
48 | CCc1cc(=O)c2cc(CCO)ccc2o1 | 75 to 76
49 | CC1(C(=O)NCCc2cccs2)CCCCC1 | 79 to 80
50 | CCOC(=O)N(c1cccc(C(F)(F)F)c1)c1ccccc1N | 105 to 108

Row | Compound | melting point [°C]
51 | CCCN1CCCC2c3nc(N)sc3CCC21 (centres undefined) | 163 to 181
52 | CCCc1c(OCCCOc2ccc(C(=O)OCCCN(C)C)cc2Br)ccc(C(C)=O)c1O | 71 to 72
53 | N#CC(c1ccc([N+](=O)[O-])cc1)c1ccccn1 (racemic) | 97 to 99
54 | FC(F)(F)Oc1ccc(-c2ncc(CBr)cn2)cc1 | 80 to 81
55 | CCOC(=O)c1c(O)c2cc(Br)ccc2c(=O)n1CC1CC1 | 64 to 65
56 | O=C1Oc2cc(O)ccc2CN1C1CCCCC1 | 193 to 196
57 | CCOC(=O)C(O)=Cc1ccc(Cc2ccc(F)cc2)cn1 | 94 to 96
58 | c1ccc2c3c(cnc2c1)OCCN3 | 175 to 176
59 | CCOC(=O)CC[C@H](NC(=O)c1ccc(CNCc2cnc3nc(NC(=O)C(C)(C)C)nc(O)c3c2)cc1)C(=O)OCC | 149 to 151
60 | CC(NC(=O)C(C)(C)CCl)c1ccc(Cl)cc1 (centres undefined) | 95 to 96
61 | Cn1cc(C2=C(c3c4n(c5ccccc35)CCC(C#N)C4)C(=O)OC2=O)c2ccccc21 (centres undefined) | 309 to 311
62 | CC1=C(/C=C/S(=O)(=O)NC(C)C)C(c2cccc([N+](=O)[O-])c2)C(C(=O)OCC(F)(F)F)=C(C)N1 (centres undefined) | 180 to 182
63 | Oc1ccc(-c2noc(C3(C(O)(C4CC4)C4CC4)CC3)c2-c2ccccc2)cc1 | 169 to 170
64 | CCc1c(C(=O)O)c(CC(=O)O)n(C)c1C(=O)c1ccc(Cl)cc1 | 211 to 212
65 | CC(C)C(=O)c1cccc([N+](=O)[O-])c1 | 33 to 35
66 | CCc1c(C)cc(C(=O)NC(C(=O)OC)c2cccs2)c(=O)n1Cc1ccc(F)cc1 (centres undefined) | 182 to 184
67 | COc1cc(OC)c([N+](=O)[O-])c(C(=O)NC2CCN(C(c3ccccc3)c3ccccc3)CC2)c1 | 148 to 150
68 | Cc1c(C)c(N2CCN(c3nccs3)CC2)c(C)c2c1OC(C)(C)C2 | 150 to 151
69 | O=C(Cc1ccccc1)c1ccc(SCC(F)(F)F)cc1 | 60 to 61
70 | NC(=O)N(O)CCc1ccc(Sc2cccc(C(F)(F)F)c2)s1 | 124 to 126
71 | COc1ccc2cc(-c3ccc(Cl)c(-n4nc(C)c(C)n4)c3)c(=O)oc2c1 | 180
72 | Cc1cn2ccc(NC(=O)C(F)(F)F)c(I)c2n1 | 168
73 | CC(C)n1nc(-c2sc(NC(=O)c3ccc(CN4CCOCC4)cc3)nc2-c2ccccc2)ccc1=O | 222 to 224
74 | COc1cc(C(C)C)c2c(c1)S(=O)(=O)N(COC(=O)c1cc(C)no1)C2=O | 157 to 158
75 | Cc1cc(SC2=C(O)CC(CCc3ccc(O)cc3)(C3CCCCC3)OC2=O)c(C(C)(C)C)cc1OS(=O)(=O)c1ccc(C#N)cc1 (centres undefined) | 112

Row | Compound | melting point [°C]
76 | Oc1ccnc2cc(Cl)c(F)cc12 | > 300
77 | COc1ccc(C(=O)C2Cc3cc(OC)ccc3C2=O)cc1 (centres undefined) | 160 to 162
78 | COc1ccc2cc(N(C(C)=O)c3ccc(O)cc3)ccc2c1 | 187 to 188
79 | CCCC12CCC3C4CCC(=O)C=C4CCC3C1CCC2OCc1ccccc1 (centres undefined) | 198 to 200
80 | O=C(NC(Cc1ccccc1)C(=O)O)OCc1ccc(COc2ccc(F)cc2)cc1 (centres undefined) | 112 to 113
81 | CC(CC(=O)O)C(=O)c1ccc(O)cc1 (centres undefined) | 122 to 126
82 | COc1cc(C(C)C)c2c(c1)S(=O)(=O)N(COc1cc(-c3ccccc3)nn1-c1ccccc1)C2=O | 62 to 76
83 | CC12CCCCC1CCC1C2CCC2(C)C(NCc3ccccc3)CCC12 (centres undefined) | 85.5 to 87.5
84 | Nc1c(Cl)cc(C(O)CNCCCCCOCCc2cc3ccccc3o2)cc1Cl (centres undefined) | 49 to 52
85 | O=C(CC(F)(F)F)N[C@H]1CC[C@H](CCN2CCN(c3nccc4c3CCO4)CC2)CC1 | 196
86 | COc1cccc2cccc(S(=O)(=O)N(C)C)c12 | 146 to 149
87 | N#Cc1ccc2nc(C(=O)NCc3cccc(NC(=O)CCc4nc[nH]n4)c3)[nH]c(=O)c2c1 | 298 to 301
88 | Cc1cc(-c2nc3cccnn3c2-c2ccnc(NC(=O)NCCS(C)(=O)=O)c2)ccc1F | 204 to 205
89 | CN1CCC(c2c(O)cc(O)c3c(=O)cc(Oc4ccccc4)oc23)C(O)C1 (centres undefined) | 112
90 | CSCc1cn(C)c2cc(C(F)(F)F)ccc2c1=O | 182 to 184
91 | CC(C)(C)Oc1ccc(S(=O)(=O)N2c3ccccc3C[C@H]2C(=O)NCCOc2ccc(CC(=O)O)cc2)cc1 | 68 to 71
92 | CCCCCCCCCCCCCCCCNc1ccc(C(=O)NS(=O)(=O)C(F)(F)F)cc1 | 172 to 174
93 | CONC(=O)c1ccccc1S(=O)(=O)NC(=O)Nc1nc(C)cc(C)n1 | 218
94 | CCCCOCCOc1ccc(-c2ccc3c(c2)C=C(C(=O)Nc2ccc(OCc4nccn4CCC)cc2)CCN3CC(C)C)cc1 | 118 to 120
95 | O=C(NC(CO)CO)c1cccc(-c2ccc3c(c2)C(c2ccc(Cl)cc2Cl)CC3)c1 (centres undefined) | 135 to 157
96 | CCO[PH](=O)Cc1cc(Oc2ccc(C(F)(F)F)cc2Cl)ccc1[N+](=O)[O-] (centres undefined) | 106 to 107
97 | COC1C(OC(=O)c2ccccc2)C(COC(=O)c2ccccc2)OC1n1cc(C)c(=O)[nH]c1=O (centres undefined) | 128 to 130
98 | Cc1ccc2c(c1)CCC2=NNC(=N)N | > 275
99 | CCOC(=O)C1COc2cc(OC(C)=O)ccc2O1 (centres undefined) | 66
